The results in this text go back to US20100093748A1, “SUBSTITUTED PIPERIDINES HAVING PROTEIN KINASE INHIBITING ACTIVITY” (ASTEX THERAPEUTICS LIMITED, priority 2006, published 2010).

The assay relates to phosphorylation of Serine-9 residue in Glycogen Synthase Kinase-3beta as surrogate marker of cellular PKB (Akt) activity. Put plainly: In vitro MDA-MB-468 human breast adenocarcinoma GSK-3 phosphorylation assay. Type of assay: cell-based. As to conditions: MDA-MB-468 cells, 2 hours compound incubation, mean IC50, read-out: Cell pGSK3b IC50. An excerpt:
This assay determines the ability of test compounds to inhibit phosphorylation of Serine-9 residue in Glycogen Synthase Kinase-3beta (GSK-313) as a surrogate marker of cellular PKB (Akt) activity, as assessed using Acumen Explorer Fluorescent Plate-Reader technology. A MDA-MB-468 human breast adenocarcinoma cell line (LGC Promochem, Teddington, Middlesex, UK, Catalogue No. HTB-132) was routinely maintained in Dulbecco's modified Eagle's growth medium (DMEM; Invitrogen Limited, Paisley, UK Catalogue No. 11966-025) containing 10% heat-inactivated foetal calf serum (FCS; Sigma, Poole, Dorset, UK, Catalogue No. F0392) and 1% L-glutamine (Gibco, Catalogue No. 25030-024) at 37° C. with 5% CO2 up to a confluency of 70-90%.
For the phosphorylation assay, the cells were detached from the culture flask using Trypsin-EDTA (Invitrogen Limited, Catalogue No. 25300-062) and seeded into the wells of a black transparent-bottom Corning Costar Polystyrene 96 well plate (Fisher Scientific UK, Loughborough, Leicestershire, UK; Catalogue No. 3904 and DPS-130-020K) at a density of 5000 cells per well in 100 μl of complete growth media. The cells were incubated overnight at 37° C. with 5% CO2 to allow them to adhere.
On day 2, the cells were treated with test compounds and incubated for 2 hours at 37° C. with 5% CO2. Test compounds were prepared as 10mM stock solutions in DMSO and dosed directly to required concentration into test wells using non-contact (acoustic dispensing of multiple 2.5 nl droplets directly into assay wells) ECHO dosing technology (Labcyte Inc Sunnyvale, Calif., USA). Each plate contained control wells without test compound.
20 μl of fixing buffer (Phosphate Buffered Saline (PBS) containing 10% formaldehyde; Sigma; Catalogue No. F1635) was then added to each well to give a final well concentration 1.6%. Plates were then incubated for 30 minutes at room temperature prior to the fixative being removed. Each well was washed once with 250 μl of PBS and then 50 μl PBS added to each well. PBS was then aspirated and cells permeabilised and blocked by incubating each well with 50 μl of permeabilisation/blocking buffer (PBS containing 0.5% Tween 20 (Sigma; Catalogue No. P5927) and 5% Marvel Milk Powder (Andrews Pharmacy Ltd, Macclesfield, Cheshire, UK; Catalogue No. APC100199)) for 1 hour at room temperature prior to staining.
Following removal of Perm/Block buffer, 50 μl of primary anti-phospho-GSK-3β antibody (Cell Signalling Technology (New England Biolabs (Uk) Ltd.), Hitchin, Hertfordshire, UK; Catalogue No.9336 diluted 1:400 in Blocking buffer (PBS containing 5% Marvel and 0.05% Tween/Polysorbate 20) was added to each well and incubated overnight at 4° C.
Each well was washed three times in 250 μl of wash buffer (PBS containing 0.05% polysorbate 20), and cells incubated for 1 hour at room temperature with 50 μl of secondary fluorescently-labelled anti-rabbit Alexa Fluor 488 antibody (Molecular Probes, Invitrogen Limited, Catalogue No. A11008) diluted 1:750 in blocking buffer. Plates were washed three times in 250 μl of wash buffer and stored containing 50 μl of PBS at 4° C. until required.
Plates were analysed using an Acumen Explorer Plate-reader to quantify level of fluorescent signal that represents quantity of phosphorylated-GSK-313.
IC50 calculation—IC50 is the concentration of compound required to give 50% effect over the range of activity affected by the compound, between maximum (no compound) and minimum (excess level of compound) response control data. IC50 values were determined by fitting background corrected, dose response assay data to a 4 parameter logistic curve fit equation model with the minimum response set to zero. This was done using an in-house developed algorithm within the Origin graphing software package (OriginLab Corporation, Northampton, Mass., USA). […]
With `NCC1(c2nc3cc(Cl)ccc3[nH]2)CCN(c2ncnc3[nH]cnc23)CC1` [Example 66G, (4-(5-chloro-1H-benzo[d]imidazol-2-yl)-1-(9H-purin-6-yl)piperidin-4-yl)methanamine], the IC50 (commonly the point on the concentration scale where inhibition reaches its midpoint) worked out at 110 nM. As for `NCC1(c2nc3cc(Cl)ccc3[nH]2)CCN(c2ncnc3[nH]ccc23)CC1` [Example 67B, (4-(5-chloro-1H-benzo[d]imidazol-2-yl)-1-(7H-pyrrolo[2,3-d]pyrimidin-4-yl)piperidin-4-yl)methanamine], the IC50 was found to be 62 nM. Regarding `NC1(c2nc3cc(Br)ccc3[nH]2)CCN(c2ncnc3[nH]ccc23)CC1` [Example 68B, 4-(5-bromo-1H-benzo[d]imidazol-2-yl)-1-(7H-pyrrolo[2,3-d]pyrimidin-4-yl)piperidin-4-amine], the half-inhibitory concentration (IC50) stood at 460 nM.

With `NC1(c2nc3cc(-c4ccccc4)ccc3[nH]2)CCN(c2ncnc3[nH]ccc23)CC1` [Example 68D, 4-(5-phenyl-1H-benzo[d]imidazol-2-yl)-1-(7H-pyrrolo[2,3-d]pyrimidin-4-yl)piperidin-4-amine], the IC50 was determined as 2400 nM. As for `NC1(c2nc3cc(-c4ccoc4)ccc3[nH]2)CCN(c2ncnc3[nH]ccc23)CC1` [Example 69, 4-(5-furan-3-yl-1H-benzimidazol-2-yl)-1-(7H-pyrrolo[2,3-d]pyrimidin-4-yl)piperidin-4-amine], the concentration for half-maximal inhibition (IC50) stood at 1600 nM. In the case of `NC1(c2nc3cc(-c4ccncc4)ccc3[nH]2)CCN(c2ncnc3[nH]ccc23)CC1` [Example 70, 4-(5-pyridin-4-yl-1H-benzimidazol-2-yl)-1-(7H-pyrrolo[2,3-d]pyrimidin-4-yl)piperidin-4-amine] it was 1600 nM; in that of `COc1ccccc1-c1ccc2[nH]c(C3(N)CCN(c4ncnc5[nH]ccc45)CC3)nc2c1` [Example 71, 4-[5-(2-methoxyphenyl)-1H-benzimidazol-2-yl]-1-(7H-pyrrolo[2,3-d]pyrimidin-4-yl)piperidin-4-amine], 2500 nM.

For `NC1(c2nc3cc(-c4ccco4)ccc3[nH]2)CCN(c2ncnc3[nH]ccc23)CC1` [Example 72], the concentration for half-maximal inhibition (IC50) was found to be 3000 nM. On to `COc1ccc(-c2ccc3[nH]c(C4(N)CCN(c5ncnc6[nH]ccc56)CC4)nc3c2)cc1` [Example 73, 4-[5-(4-methoxyphenyl)-1H-benzimidazol-2-yl]-1-(7H-pyrrolo[2,3-d]pyrimidin-4-yl)piperidin-4-amine], for which the 50% inhibitory concentration (IC50) was 3300 nM. For `Cn1cc(-c2ccc3[nH]c(C4(N)CCN(c5ncnc6[nH]ccc56)CC4)nc3c2)cn1` [Example 74, 4-[5-(1-methylpyrazol-4-yl)-1H-benzimidazol-2-yl]-1-(7H-pyrrolo[2,3-d]pyrimidin-4-yl)piperidin-4-amine], the IC50 stood at 3700 nM. Turning to `CS(=O)(=O)c1cccc(-c2ccc3[nH]c(C4(N)CCN(c5ncnc6[nH]ccc56)CC4)nc3c2)c1` [Example 75, 4-[5-(3-methylsulfonylphenyl)-1H-benzimidazol-2-yl]-1-(7H-pyrrolo[2,3-d]pyrimidin-4-yl)piperidin-4-amine], the IC50 is 5100 nM. For the compound `COc1cccc(-c2ccc3[nH]c(C4(N)CCN(c5ncnc6[nH]ccc56)CC4)nc3c2)c1` [Example 76, 4-[5-(3-methoxyphenyl)-1H-benzimidazol-2-yl]-1-(7H-pyrrolo[2,3-d]pyrimidin-4-yl)piperidin-4-amine], the half-inhibitory concentration (IC50) came out at 6400 nM. In the case of `NC1(c2nc3cc(-c4cccnc4)ccc3[nH]2)CCN(c2ncnc3[nH]ccc23)CC1` [Example 77, 4-(5-pyridin-3-yl-1H-benzimidazol-2-yl)-1-(7H-pyrrolo[2,3-d]pyrimidin-4-yl)piperidin-4-amine], the 50% inhibitory concentration (IC50) came out at 12000 nM. `CS(=O)(=O)c1ccc(-c2ccc3[nH]c(C4(N)CCN(c5ncnc6[nH]ccc56)CC4)nc3c2)cc1` [Example 78, 4-[5-(4-methylsulfonylphenyl)-1H-benzimidazol-2-yl]-1-(7H-pyrrolo[2,3-d]pyrimidin-4-yl)piperidin-4-amine]: the IC50 came to 16000 nM. Then `NC1(c2nc3c(-c4cccnc4)cccc3[nH]2)CCN(c2ncnc3[nH]ccc23)CC1` [Example 79], with 85 nM. In the case of `COc1ccccc1-c1cccc2[nH]c(C3(N)CCN(c4ncnc5[nH]ccc45)CC3)nc12` [Example 80, 4-[4-(2-methoxyphenyl)-1H-benzimidazol-2-yl]-1-(7H-pyrrolo[2,3-d]pyrimidin-4-yl)piperidin-4-amine] it was 64 nM; in that of `COc1cccc(-c2cccc3[nH]c(C4(N)CCN(c5ncnc6[nH]ccc56)CC4)nc23)c1` [Example 81, -[4-(3-methoxyphenyl)-1H-benzimidazol-2-yl]-1-(7H-pyrrolo[2,3-d]pyrimidin-4-yl)piperidin-4-amine], 140 nM. For `COc1ccc(-c2cccc3[nH]c(C4(N)CCN(c5ncnc6[nH]ccc56)CC4)nc23)cc1` [Example 82, -[4-(4-methoxyphenyl)-1H-benzimidazol-2-yl]-1-(7H-pyrrolo[2,3-d]pyrimidin-4-yl)piperidin-4-amine], the IC50 came out at 120 nM. For `CS(=O)(=O)c1ccc(-c2cccc3[nH]c(C4(N)CCN(c5ncnc6[nH]ccc56)CC4)nc23)cc1` [Example 83, 4-{4-[4-(methylsulfonyl)phenyl]-1H-benzimidazol-2-yl}-1-(7H-pyrrolo[2,3-d]pyrimidin-4-yl)piperidin-4-amine], the half-inhibitory concentration (IC50) was determined as 47 nM. Turning to `NC1(c2nc3c(Br)cccc3[nH]2)CCN(c2ncnc3[nH]ccc23)CC1` [Example 85, 4-(7-Bromo-1H-benzo[d]imidazol-2-yl)-1-(7H-pyrrolo[2,3-d]pyrimidin-4-yl)piperidin-4-amine], the IC50 was determined as 350 nM. In the case of `Cn1cc(-c2cccc3[nH]c(C4(N)CCN(c5ncnc6[nH]ccc56)CC4)nc23)cn1` [Example 86, 4-(4-(1-Methyl-1H-pyrazol-4-yl)-1H-benzo[d]imidazol-2-yl)-1-(7H-pyrrolo[2,3-d]pyrimidin-4-yl)piperidin-4-amine] it was 130 nM; in that of `NC1(c2nc3c(-c4ccco4)cccc3[nH]2)CCN(c2ncnc3[nH]ccc23)CC1` [Example 87, 4-[7-(2-furyl)-1H-benzimidazol-2-yl]-1-(7H-pyrrolo[2,3-d]pyrimidin-4-yl)piperidin-4-amine], 220 nM; in that of `NC1(c2nc3c(-c4ccoc4)cccc3[nH]2)CCN(c2ncnc3[nH]ccc23)CC1` [Example 88, 4-[7-(3-furyl)-1H-benzimidazol-2-yl]-1-(7H-pyrrolo[2,3-d]pyrimidin-4-yl)piperidin-4-amine], 52 nM.

`NCC1(c2nc3cc(Br)ccc3[nH]2)CCN(c2ncnc3[nH]ccc23)CC1` [Example 89E, (4-(5-Bromo-1H-benzo[d]imidazol-2-yl)-1-(7H-pyrrolo[2,3-d]pyrimidin-4-yl)piperidin-4-yl)methanamine]: the IC50 was 81 nM.

Consider `NC1(c2nc3c(-c4cncnc4)cccc3[nH]2)CCN(c2ncnc3[nH]ccc23)CC1` [Example 91, 4-(4-pyrimidin-5-yl-1H-benzimidazol-2-yl)-1-(7H-pyrrolo[3,2-e]pyrimidin-4-yl)piperidin-4-amine], for which the 50% inhibitory concentration (IC50) worked out at 52 nM. In the case of `NC1(c2nc3c(-c4ccncc4)cccc3[nH]2)CCN(c2ncnc3[nH]ccc23)CC1` [Example 92, 4-(4-pyridin-4-yl-1H-benzimidazol-2-yl)-1-(7H-pyrrolo[3,2-e]pyrimidin-4-yl)piperidin-4-amine] it was 33 nM. Consider `NC1(c2nc3c(-c4cn[nH]c4)cccc3[nH]2)CCN(c2ncnc3[nH]ccc23)CC1` [Example 93, 4-[4-(1H-pyrazol-4-yl)-1H-benzimidazol-2-yl]-1-(7H-pyrrolo[3,2-e]pyrimidin-4-yl)piperidin-4-amine], for which the concentration for half-maximal inhibition (IC50) turned out to be 250 nM.
